How the values were obtained:
EGFR WT = EGFR WT (Homo sapiens (Human), UniProt P00533); assay: EGFR biochemical assay (AssayQuant chelation-enhanced fluorescence); conditions: 30 min preincubation, reaction time 360 min
EGFR WT in Ba/F3 cells = EGFR WT in Ba/F3 cells (Homo sapiens (Human), UniProt P00533); assay: Ba/F3 pEGFR assay (AlphaLISA p-EGFR Tyr1068); type: cell-based; conditions: 2 hrs treatment, media supplemented with EGF
Procedure: Cellular activity was determined using the Ba/F3 system for studying oncogenic mutant kinases (Warmuth 2007). […] Transduced cells were maintained in RPMI 1640 with 10% FBS. EGFR WT transduced cells were grown in media supplemented with EGF. To assay cellular activity of inhibitors, cells were treated with inhibitor from 1000X DMSO stock dilutions and incubated for 2 hrs at 37° C. 5% CO2. Subsequently, p-EGFR (Tyr1068) was quantified using a commercial sandwich immunoassay (PerkinElmer AlphaLISA SureFire assay; ALSU-PEGFR) according to the manufacturer's instructions. […] Curr Opin Oncol 19, 55-60 (2007), which is incorporated herein in its entirety.

EGFR WT, sequence (P00533 668-1210): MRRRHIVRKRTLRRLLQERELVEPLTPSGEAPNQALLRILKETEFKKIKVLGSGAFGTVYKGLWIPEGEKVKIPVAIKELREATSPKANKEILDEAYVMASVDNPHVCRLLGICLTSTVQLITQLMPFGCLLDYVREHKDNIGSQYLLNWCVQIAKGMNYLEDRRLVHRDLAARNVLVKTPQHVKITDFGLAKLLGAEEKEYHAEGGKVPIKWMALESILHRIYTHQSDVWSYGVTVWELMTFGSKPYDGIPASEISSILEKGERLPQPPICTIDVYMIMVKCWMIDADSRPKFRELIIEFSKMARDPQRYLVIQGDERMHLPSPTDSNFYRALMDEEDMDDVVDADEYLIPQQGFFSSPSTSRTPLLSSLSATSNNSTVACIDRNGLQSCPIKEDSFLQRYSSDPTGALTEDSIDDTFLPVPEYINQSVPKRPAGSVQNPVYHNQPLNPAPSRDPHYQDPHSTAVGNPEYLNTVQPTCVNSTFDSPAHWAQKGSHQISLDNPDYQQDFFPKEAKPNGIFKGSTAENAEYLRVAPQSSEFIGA
EGFR WT in Ba/F3 cells, sequence (P00533 25-1210): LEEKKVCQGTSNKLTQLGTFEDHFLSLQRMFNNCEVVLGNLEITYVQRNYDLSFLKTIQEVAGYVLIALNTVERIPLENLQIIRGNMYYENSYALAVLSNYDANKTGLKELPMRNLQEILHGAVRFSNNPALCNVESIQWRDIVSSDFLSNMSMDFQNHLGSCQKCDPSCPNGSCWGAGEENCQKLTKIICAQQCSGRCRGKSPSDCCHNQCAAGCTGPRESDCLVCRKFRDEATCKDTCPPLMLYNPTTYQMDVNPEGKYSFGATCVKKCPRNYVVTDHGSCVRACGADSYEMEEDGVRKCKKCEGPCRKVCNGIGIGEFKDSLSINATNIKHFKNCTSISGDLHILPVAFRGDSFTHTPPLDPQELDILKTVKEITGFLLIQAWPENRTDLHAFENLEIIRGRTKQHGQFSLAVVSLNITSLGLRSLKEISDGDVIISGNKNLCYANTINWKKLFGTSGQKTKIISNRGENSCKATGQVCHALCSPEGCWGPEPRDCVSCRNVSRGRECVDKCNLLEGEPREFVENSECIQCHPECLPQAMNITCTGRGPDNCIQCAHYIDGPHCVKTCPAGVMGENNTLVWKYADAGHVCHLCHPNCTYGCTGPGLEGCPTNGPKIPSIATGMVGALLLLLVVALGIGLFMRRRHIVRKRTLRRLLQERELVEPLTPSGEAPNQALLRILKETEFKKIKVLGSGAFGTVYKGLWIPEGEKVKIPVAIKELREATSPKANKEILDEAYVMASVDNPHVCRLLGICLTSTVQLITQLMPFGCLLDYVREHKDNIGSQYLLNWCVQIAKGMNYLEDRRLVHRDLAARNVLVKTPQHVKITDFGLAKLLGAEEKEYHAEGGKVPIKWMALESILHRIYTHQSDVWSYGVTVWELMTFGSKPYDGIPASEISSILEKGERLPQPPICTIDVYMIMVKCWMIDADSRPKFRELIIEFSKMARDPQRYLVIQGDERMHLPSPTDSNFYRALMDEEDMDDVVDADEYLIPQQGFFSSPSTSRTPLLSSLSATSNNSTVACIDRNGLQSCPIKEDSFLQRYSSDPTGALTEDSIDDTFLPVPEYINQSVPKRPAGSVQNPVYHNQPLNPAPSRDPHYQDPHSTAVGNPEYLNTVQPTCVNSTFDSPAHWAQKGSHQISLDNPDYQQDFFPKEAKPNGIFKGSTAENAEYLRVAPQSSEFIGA

Structure (SMILES) | IC50 (EGFR WT) [nM] | IC50 (EGFR WT in Ba/F3 cells) [nM]
CC(C)(O)Cn1/c(=N/C(=O)c2ccnc(Oc3cccc(O)c3C=O)c2)[nH]c2ccc(CN3CC(C(C)(C)O)C3)cc21 [Compound 63, (E)-2-(2-formyl-3-hydroxyphenoxy)-N-(1-(2-hydroxy-2-methylpropyl)-6-((3-(2-hydroxypropan-2-yl)azetidin-1-yl)methyl)-1,3-dihydro-2H-benzo[d]imidazol-2-ylidene)isonicotinamide] | 8.55 | 4090
COc1cc(N2CCC(N3CCN(C)CC3)CC2)ccc1Nc1ncc(-c2cc(C=O)c(O)cc2OC)c(Nc2ccccc2)n1 [Compound 13] | 94 | > 10000
CC(C)(O)Cn1/c(=N/C(=O)c2ccnc(N3CCN(c4cccc(O)c4C=O)CC3)c2)[nH]c2ccccc21 [Compound 131] | > 1000 | > 10000
COc1cc(N2CCC(N3CCN(C)CC3)CC2)ccc1Nc1ncc(-c2ccc(C=O)c(O)c2)c(Nc2ccccc2)n1 [Compound 4] | > 1000 | > 10000
COc1cc(N(C)CCN(C)C)ccc1Nc1ncc(-c2ccc(O)c(C=O)c2)c(-c2cn(C)c3ccccc23)n1 [Compound 8] | > 1000 | > 10000
CN(C)C/C=C/C(=O)N1CCCC[C@@H](n2c(NC(=O)c3ccnc(Oc4cccc(O)c4C=O)c3)nc3cccc(Cl)c32)C1 [Compound 126] | 13 | 2030
CC(C)(O)Cn1/c(=N/C(=O)c2ccnc(COc3cccc(O)c3C=O)c2)[nH]c2ccccc21 [Compound 133] | 316 | > 10000
CC(C)c1ccc(N2CC(CS(C)(=O)=O)C2)c2cnc(Nc3ccnc(COc4cccc(O)c4C=O)n3)cc12 [Compound 42] | 181 | > 10000
COc1cc(N2CCC(N3CCN(C)CC3)CC2)ccc1Nc1ncc(-c2cccc(C=O)c2O)c(Nc2ccccc2)n1 [Compound 5] | 398 | > 10000
CC(C)(O)Cn1/c(=N/C(=O)c2ccnc(Nc3cccc(C=O)c3O)c2)[nH]c2ccccc21 [Compound 134] | > 1000 | > 10000
CC(C)(O)Cn1/c(=N/C(=O)c2ccnc(Oc3cccc(O)c3C=O)c2)[nH]c2ccc(N3CCOCC3)cc21 [Compound 74] | 8.75 | 3230
CC(C)(O)Cn1/c(=N/C(=O)c2ccnc(-c3cccc(-c4cccc(O)c4C=O)c3)c2)[nH]c2ccccc21 [Compound 130] | 529 | 6430
CC(C)c1ccc(N2CC(CS(C)(=O)=O)C2)c2cnc(Nc3ccnc(-n4cc(-c5cccc(O)c5C=O)cn4)n3)cc12 [Compound 44] | 197 | 6850
O=Cc1c(O)cccc1Oc1cc(C(=O)/N=c2\[nH]c3ccccc3n2[C@H]2CC[C@@H](O)CC2)ccn1 [Compound 122] | 8.24 | 5260
CC(C)(O)Cn1/c(=N/C(=O)c2ccnc(Oc3cccc(O)c3C=O)c2)[nH]c2ccc(N3CCC(C(C)(C)O)CC3)cc21 [Compound 70] | 11.5 | 4580
COc1cc(N(C)CCN(C)C)c(NC(C)=O)cc1Nc1nccc(-c2cn(Cc3ccc(C=O)c(O)c3)c3ccccc23)n1 [Compound 29] | > 1000 | > 10000
CC(C)(O)Cn1/c(=N/C(=O)c2ccnc(Oc3cccc(O)c3C=O)c2)[nH]c2ccccc21 [Compound 121] | 10.5 | > 10000
CN1CCN(C2CCN(c3ccc4c(c3)[nH]/c(=N\C(=O)c3ccnc(Oc5cccc(O)c5C=O)c3)n4CC(C)(C)O)CC2)CC1 [Compound 91] | 49.3 | > 10000
CC(C)c1ccc(N2CC(CS(C)(=O)=O)C2)c2cnc(Nc3ccnc(N(C)Cc4cccc(C=O)c4O)n3)cc12 [Compound 49] | > 1000 | 2290
COc1cc(N2CCC(N3CCN(C)CC3)CC2)ccc1Nc1ncc(Cl)c(Nc2ccc(O)c(C=O)c2)n1 [Compound 35] | 292 | > 10000
CN1CCN(Cc2ccc3[nH]/c(=N\C(=O)c4ccnc(C#Cc5cccc(NC(=O)C(F)(F)F)c5C=O)c4)n(CC(C)(C)O)c3c2)CC1 [Compound 101] | 200 | 2570
COc1cc(N(C)CCN(C)C)c(NC(C)=O)cc1Nc1nccc(-c2cn(Cc3cccc(O)c3C=O)c3ccccc23)n1 [Compound 28] | > 1000 | > 10000
COc1cc(N2CCC(N3CCN(C)CC3)CC2)ccc1Nc1ncc(-c2ccc(O)c(C=O)c2F)c(Nc2ccccc2)n1 [Compound 11] | 11 | 70.8
COc1cc(N2CCC(N3CCN(C)CC3)CC2)ccc1Nc1ncc(-c2cc(F)c(O)c(C=O)c2)c(Nc2ccccc2)n1 [Compound 9] | 4.89 | 42.5
CC(C)(O)Cn1/c(=N/C(=O)c2ccnc(-c3ccc(-c4cccc(O)c4C=O)cc3)c2)[nH]c2ccccc21 [Compound 132] | > 1000 | > 10000
CN(C)C/C=C/C(=O)N1CCCC[C@@H](n2c(NC(=O)c3ccnc(-n4cc(-c5cccc(O)c5C=O)cn4)c3)nc3cccc(Cl)c32)C1 [Compound 125] | 29.4 | 4900
CC(C)c1ccc(N2CC(CS(C)(=O)=O)C2)c2cnc(Nc3ccnc(N(C)CCc4cccc(O)c4C=O)n3)cc12 [Compound 45] | > 1000 | > 10000

Results, then the molecule that gave them:

IC50 (EGFR WT) [nM] | IC50 (EGFR WT in Ba/F3 cells) [nM] | Structure (SMILES)
5.88 | 1900 | CN1CCN(Cc2ccc3[nH]/c(=N\C(=O)c4cc(C#N)cc(Oc5cccc(O)c5C=O)c4)n(CC(C)(C)O)c3c2)CC1 [Compound 51]
131 | > 10000 | CN1CCN(Cc2ccc3[nH]/c(=N\C(=O)c4ccnc(-n5ccc(-c6cccc(O)c6C=O)n5)c4)n(CC(C)(C)O)c3c2)CC1 [Compound 83]
280 | > 10000 | CN1CCN(Cc2ccc3[nH]/c(=N\C(=O)c4ccc(Oc5cccc(O)c5C=O)cc4)n(CC(C)(C)O)c3c2)CC1 [Compound 105]
9.73 | 3470 | CN1CCN(Cc2ccc3[nH]/c(=N\C(=O)c4ccnc(Oc5c(F)ccc(O)c5C=O)c4)n(CC(C)(C)O)c3c2)CC1 [Compound 68]
8.96 | 1420 | CN1CCN(Cc2ccc3[nH]/c(=N\C(=O)c4ccnc(Oc5cccc(O)c5C=O)c4)n(CC(C)(C)O)c3c2)CC1 [Compound 64]
5.97 | > 8180 | CN1CCN(Cc2ccc3[nH]/c(=N\C(=O)c4cc(F)cc(Oc5cccc(O)c5C=O)c4)n(CC(C)(C)O)c3c2)CC1 [Compound 53]
296 | 9060 | CN1CCN(Cc2ccc3[nH]/c(=N\C(=O)c4ccnc(Oc5ccccc5C=O)c4)n(CC(C)(C)O)c3c2)CC1 [Compound 92]
67.9 | > 10000 | CN1CCN(Cc2ccc3[nH]/c(=N\C(=O)c4ccnc(Oc5cccc(O)c5C=O)c4F)n(CC(C)(C)O)c3c2)CC1 [Compound 82]
10.4 | 4950 | CN1CCN(C(=O)c2ccc3[nH]/c(=N\C(=O)c4ccnc(Oc5cccc(O)c5C=O)c4)n(CC(C)(C)O)c3c2)CC1 [Compound 71]
17.9 | > 10000 | Cc1cc(Oc2cccc(O)c2C=O)cc(C(=O)/N=c2\[nH]c3ccc(CN4CCN(C)CC4)cc3n2CC(C)(C)O)c1 [Compound 61]
148 | 1830 | CC(=O)Nc1cccc(Oc2cc(C(=O)/N=c3\[nH]c4ccc(CN5CCN(C)CC5)cc4n3CC(C)(C)O)ccn2)c1C=O [Compound 98]
23.7 | > 8080 | CN1CCN(Cc2ccc3[nH]/c(=N\C(=O)c4ccnc(Oc5ccc(F)c(O)c5C=O)c4)n(CC(C)(C)O)c3c2)CC1 [Compound 77]
28 | > 10000 | CN1CCN(Cc2ccc3[nH]/c(=N\C(=O)c4cc(C=O)nc(Oc5cccc(O)c5C=O)c4)n(CC(C)(C)O)c3c2)CC1 [Compound 81]
8.29 | 2850 | CN1CCN(Cc2ccc3[nH]/c(=N\C(=O)c4cc(F)nc(Oc5cccc(O)c5C=O)c4)n(CC(C)(C)O)c3c2)CC1 [Compound 60]
> 1000 | 9870 | CN1CCN(Cc2ccc3[nH]/c(=N\C(=O)c4ccnc(OCc5cccc(O)c5C=O)c4)n(CC(C)(C)O)c3c2)CC1 [Compound 112]
490 | > 10000 | CN1CCN(Cc2ccc3[nH]/c(=N\C(=O)c4cccc(Oc5cccc(O)c5C=O)n4)n(CC(C)(C)O)c3c2)CC1 [Compound 93]
344 | > 10000 | CN1CCN(Cc2ccc3[nH]/c(=N\C(=O)c4ccnc(N5CC(Oc6cccc(O)c6C=O)C5)c4)n(CC(C)(C)O)c3c2)CC1 [Compound 104]
9.32 | 1130 | Cc1ccc(C(=O)/N=c2\[nH]c3ccc(CN4CCN(C)CC4)cc3n2CC(C)(C)O)cc1Oc1cccc(O)c1C=O [Compound 59]
6.03 | 1770 | CN1CCN(Cc2ccc3[nH]/c(=N\C(=O)c4ccnc(C#Cc5c(F)ccc(O)c5C=O)c4)n(CC(C)(C)O)c3c2)CC1 [Compound 57]
5.33 | 1430 | CN1CCN(Cc2ccc3[nH]/c(=N\C(=O)c4cncc(Oc5cccc(O)c5C=O)c4)n(CC(C)(C)O)c3c2)CC1 [Compound 55]
23.8 | > 10000 | CN1CCN(Cc2ccc3[nH]/c(=N\C(=O)c4cc(Cl)nc(Cc5cccc(O)c5C=O)c4)n(CC(C)(C)O)c3c2)CC1 [Compound 86]
81 | > 10000 | CN1CCN(Cc2ccc3[nH]/c(=N\C(=O)c4cncc(Oc5cccc(O)c5C=O)n4)n(CC(C)(C)O)c3c2)CC1 [Compound 108]
10.1 | 5000 | CN1CCN(Cc2ccc3[nH]/c(=N\C(=O)c4ccc(Oc5cccc(O)c5C=O)s4)n(CC(C)(C)O)c3c2)CC1 [Compound 73]

Reference: US20240409609A1, “REVERSIBLE LYSINE COVALENT MODIFIERS OF EGFR AND USES THEREOF” (Terremoto Biosciences, Inc., priority 2021, published 2024)
